Reference: patent US20070141028A1, “Cancer gene therapeutic drug” (priority 2003, published 2007)

How the values were obtained:
Format in all cases: cell-based
ovarian cancer cells HEY = test: Influence of Fe and ALA on the proliferation inhibitory effect of adenovirus AdE3-1A1.3B (virus rate at IC50); conditions: IC50 after five days
Protocol: Ovarian cancer cells HEY were cultured in 12-well plate at a rate of 10,000 cells/well and FeSO4 was added at a concentration of 50 μg/ml, 5 μg/ml, 0.5 μg/ml or 0 μg/ml on the following day and the cytolysis type adenovirus AdE3-1A1.3B was added to all wells. The proliferation inhibitory effect of the adenovirus was evaluated by IC50 after five days.
(§1) Next, the ovarian cancer cell line HEY was cultured in a 12-well plate at a rate of 10,000 cells/well and 5-aminolevulinic acid (ALA) was added at a concentration of 50 μg/ml, 5 μg/ml, 0.5 μg/ml or 0 μg/ml on the following day and the cytolysis type adenovirus AdE3-1A1.3B was added to all wells. The proliferation inhibitory effect of the adenovirus was evaluated by IC50 after five days.
as §1, with “Furthermore,” for “Next,”, “FeSO4” for “5-aminolevulinic acid (ALA)”, “day. In addition,” for “day and”, “AdE3-1A1.3B and 50 μg/ml of 5-aminolevulinic acid (ALA) were added to each well. Only the adenovirus” for “AdE3-1A1.3B”, “a control.” for “all wells.”

cancer cells [1] = test: β-gal assay of adenovirus infectivity
Text: (§2) That is, ALA and Fe can enhance antitumor effect, because they can increase the infectivity of adenovirus to cancer cells and the amount of virus production within the cells.

cancer cells [2] = test: PFU assay of adenovirus production
Text: as §2

Compound	proliferation inhibitory effect relative to only adenovirus administration (ovarian cancer cells HEY; 0.5 μg/ml FeSO4 + 50 μg/ml ALA + AdE3-1A1.3B)	proliferation inhibitory effect relative to only adenovirus administration (ovarian cancer cells HEY; 5 μg/ml FeSO4 + 50 μg/ml ALA + AdE3-1A1.3B)	proliferation inhibitory effect relative to only adenovirus administration (ovarian cancer cells HEY; 5 μg/ml FeSO4 + AdE3-1A1.3B)	proliferation inhibitory effect relative to only adenovirus administration (ovarian cancer cells HEY; 50 μg/ml FeSO4 + 50 μg/ml ALA + AdE3-1A1.3B)	proliferation inhibitory effect relative to only adenovirus administration (ovarian cancer cells HEY; 50 μg/ml FeSO4 + AdE3-1A1.3B)	proliferation inhibitory effect relative to only adenovirus administration (ovarian cancer cells HEY; 50 μg/ml ALA + AdE3-1A1.3B)	infectivity of adenovirus (cancer cells [1])	amount of adenovirus production (cancer cells [2])
ferrous sulfate [FeSO4]	about 200 fold	about 700 fold	about 8 fold	about 1,000 fold	about 20 fold	–	–	–
NCC(=O)CCC(=O)O [ALA, 5-aminolevulinic acid]	–	–	–	–	–	about 100 fold	increased infectivity of adenovirus	increased amount of adenovirus production
